Test results published in BigSolDB 2.1.

Details: 298.2 K

O=C(c1ccccc1)c1ccc(O)cc1O
Details	solubility (mole fraction)
in 2-ethoxyethanol	0.0308
in 2-isopropoxyethanol	0.0333
in chlorobenzene	0.0044
in cyclohexane	5.07e-05
in diisopropyl ether	0.00744
in ethylbenzene	0.00408
in isooctane	3.31e-05
in m-xylene	0.00415
in methylcyclohexane	6.92e-05
in n-butanol	0.0109
in n-heptane	3.82e-05
in n-heptanol	0.018
in n-hexane	3.26e-05
in n-hexanol	0.0161
in n-octane	4.43e-05
in n-octanol	0.0183
in n-pentanol	0.0125
in o-xylene	0.00429
in p-xylene	0.00448
in sec-butanol	0.0103
in toluene	0.00364
